# Data: PubChem BioAssay AID1845216 (Molecular Pharmacology Branch, DTP, NCI, 2023)
# Tested on: SW 982 tumor spheroid viability
# Assay: Anticancer human tumor SW 982 cell line growth inhibition;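 note: spheroids exposed to compound for 7 days before readout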
# Conditions: spheroids with HUVEC and MSC; for IC50: curve of first compound; for viability, T/C: stronger effect = lower value
# Method in brief: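 Complex spheroids of malignant cells with endothelial cells and mesenchymal stem cells; agents alone or combined, from near clinical Cmax (or 10 microM if unknown) down in half-log steps, 0.25% DMSO final.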
# [1] = second compound 0.003 µM, first compound 0.0316 µM
# [2] = second compound 0.003 µM, first compound 0.1 µM
# [3] = second compound 0.003 µM, first compound 0.316 µM
# [4] = second compound 0.003 µM, first compound 1 µM
# [5] = second compound 0.003 µM, first compound 3.16 µM
# [6] = second compound 0.003 µM, first compound 10 µM
# [7] = second compound 0.00949 µM, first compound 0.0316 µM
# [8] = second compound 0.00949 µM, first compound 0.1 µM
# [9] = second compound 0.00949 µM, first compound 0.316 µM
# [10] = second compound 0.00949 µM, first compound 1 µM
# [11] = second compound 0.00949 µM, first compound 3.16 µM
# [12] = second compound 0.00949 µM, first compound 10 µM
# [13] = second compound 0.03 µM, first compound 0.0316 µM
# [14] = second compound 0.03 µM, first compound 0.1 µM
# [15] = second compound 0.03 µM, first compound 0.316 µM
# [16] = second compound 0.03 µM, first compound 1 µM
# [17] = second compound 0.03 µM, first compound 3.16 µM
# [18] = second compound 0.03 µM, first compound 10 µM
# [19] = second compound 0.0949 µM, first compound 0.0316 µM
# [20] = second compound 0.0949 µM, first compound 0.1 µM
# [21] = second compound 0.0949 µM, first compound 0.316 µM
# [22] = second compound 0.0949 µM, first compound 1 µM
# [23] = second compound 0.0949 µM, first compound 3.16 µM
# [24] = second compound 0.0949 µM, first compound 10 µM
# [25] = second compound 0.3 µM, first compound 0.0316 µM
# [26] = second compound 0.3 µM, first compound 0.1 µM
# [27] = second compound 0.3 µM, first compound 0.316 µM
# [28] = second compound 0.3 µM, first compound 1 µM
# [29] = second compound 0.3 µM, first compound 3.16 µM
# [30] = second compound 0.3 µM, first compound 10 µM
smiles,measurement,setting,value
CC(C)n1c(=O)n(C)c2cnc3cc(F)c(-c4ccc(OCCCN5CCCCC5)nc4)cc3c21 + CC[C@@]1(O)C(=O)OCc2c1cc1n(c2=O)Cc2cc3c(CN(C)C)c(O)ccc3nc2-1,IC50,second compound 0.003 µM,1570 nM
same,IC50,second compound 0.00949 µM,1530 nM
same,IC50,second compound 0.03 µM,952 nM
same,IC50,second compound 0.0949 µM,513 nM
same,IC50,second compound 0.3 µM,76.8 nM
same,"viability, T/C",[1],80.2%
same,"viability, T/C",[2],77%
same,"viability, T/C",[3],78.9%
same,"viability, T/C",[4],62.5%
same,"viability, T/C",[5],30.2%
same,"viability, T/C",[6],20.3%
same,"viability, T/C",[7],71.6%
same,"viability, T/C",[8],79.7%
same,"viability, T/C",[9],64%
same,"viability, T/C",[10],61.4%
same,"viability, T/C",[11],34.4%
same,"viability, T/C",[12],18.4%
same,"viability, T/C",[13],71.6%
same,"viability, T/C",[14],81%
same,"viability, T/C",[15],59.4%
same,"viability, T/C",[16],53.6%
same,"viability, T/C",[17],25.1%
same,"viability, T/C",[18],17.1%
same,"viability, T/C",[19],72.6%
same,"viability, T/C",[20],65.5%
same,"viability, T/C",[21],58.6%
same,"viability, T/C",[22],39.3%
same,"viability, T/C",[23],24.9%
same,"viability, T/C",[24],15.9%
same,"viability, T/C",[25],56.4%
same,"viability, T/C",[26],46.2%
same,"viability, T/C",[27],40.8%
same,"viability, T/C",[28],30%
same,"viability, T/C",[29],18.6%
same,"viability, T/C",[30],14.5%
Cc1sc2c(c1C)C(c1ccc(Cl)cc1)=NC(CC(=O)Nc1ccc(O)cc1)c1nnc(C)n1-2 (stereo not given) + CC[C@@]1(O)C(=O)OCc2c1cc1n(c2=O)Cc2cc3c(CN(C)C)c(O)ccc3nc2-1,IC50,second compound 0.003 µM,285 nM
same,IC50,second compound 0.00949 µM,553 nM
same,IC50,second compound 0.03 µM,490 nM
same,IC50,second compound 0.0949 µM,450 nM
same,IC50,second compound 0.3 µM,254 nM
same,"viability, T/C","second compound 0.003 µM, first compound 0.00949 µM",112%
same,"viability, T/C","second compound 0.003 µM, first compound 0.03 µM",110%
same,"viability, T/C","second compound 0.003 µM, first compound 0.0949 µM",76.4%
same,"viability, T/C","second compound 0.003 µM, first compound 0.3 µM",49.8%
same,"viability, T/C","second compound 0.003 µM, first compound 0.949 µM",40.1%
same,"viability, T/C","second compound 0.003 µM, first compound 3 µM",30.5%
same,"viability, T/C","second compound 0.00949 µM, first compound 0.00949 µM",97%
same,"viability, T/C","second compound 0.00949 µM, first compound 0.03 µM",98.9%
same,"viability, T/C","second compound 0.00949 µM, first compound 0.0949 µM",81.5%
same,"viability, T/C","second compound 0.00949 µM, first compound 0.3 µM",63.8%
same,"viability, T/C","second compound 0.00949 µM, first compound 0.949 µM",36.9%
same,"viability, T/C","second compound 0.00949 µM, first compound 3 µM",36.4%
same,"viability, T/C","second compound 0.03 µM, first compound 0.00949 µM",97.1%
same,"viability, T/C","second compound 0.03 µM, first compound 0.03 µM",95.8%
same,"viability, T/C","second compound 0.03 µM, first compound 0.0949 µM",83.2%
same,"viability, T/C","second compound 0.03 µM, first compound 0.3 µM",58.4%
same,"viability, T/C","second compound 0.03 µM, first compound 0.949 µM",38.8%
same,"viability, T/C","second compound 0.03 µM, first compound 3 µM",29.8%
same,"viability, T/C","second compound 0.0949 µM, first compound 0.00949 µM",95.2%
same,"viability, T/C","second compound 0.0949 µM, first compound 0.03 µM",92.1%
same,"viability, T/C","second compound 0.0949 µM, first compound 0.0949 µM",85.9%
same,"viability, T/C","second compound 0.0949 µM, first compound 0.3 µM",57.8%
same,"viability, T/C","second compound 0.0949 µM, first compound 0.949 µM",35.5%
same,"viability, T/C","second compound 0.0949 µM, first compound 3 µM",29.2%
same,"viability, T/C","second compound 0.3 µM, first compound 0.00949 µM",73.5%
same,"viability, T/C","second compound 0.3 µM, first compound 0.03 µM",80.6%
same,"viability, T/C","second compound 0.3 µM, first compound 0.0949 µM",71%
same,"viability, T/C","second compound 0.3 µM, first compound 0.3 µM",45.6%
same,"viability, T/C","second compound 0.3 µM, first compound 0.949 µM",30.4%
same,"viability, T/C","second compound 0.3 µM, first compound 3 µM",22.9%
CC1COCCN1c1cc(-c2ccnn2C)c2ccnc(-c3ccn[nH]3)c2n1 (stereo not given) + CC[C@@]1(O)C(=O)OCc2c1cc1n(c2=O)Cc2cc3c(CN(C)C)c(O)ccc3nc2-1,IC50,second compound 0.003 µM,< 31.6 nM
same,IC50,second compound 0.00949 µM,< 31.6 nM
same,IC50,second compound 0.03 µM,< 31.6 nM
same,IC50,second compound 0.0949 µM,< 31.6 nM
same,IC50,second compound 0.3 µM,< 31.6 nM
same,"viability, T/C",[1],24.8%
same,"viability, T/C",[2],17.2%
same,"viability, T/C",[3],12.2%
same,"viability, T/C",[4],7.73%
same,"viability, T/C",[5],9.86%
same,"viability, T/C",[6],13.6%
same,"viability, T/C",[7],16.3%
same,"viability, T/C",[8],14.9%
same,"viability, T/C",[9],10.3%
same,"viability, T/C",[10],8.21%
same,"viability, T/C",[11],9.89%
same,"viability, T/C",[12],12.6%
same,"viability, T/C",[13],18.2%
same,"viability, T/C",[14],10.3%
same,"viability, T/C",[15],8.15%
same,"viability, T/C",[16],7.1%
same,"viability, T/C",[17],10.2%
same,"viability, T/C",[18],13.3%
same,"viability, T/C",[19],12.1%
same,"viability, T/C",[20],11.4%
same,"viability, T/C",[21],9.49%
same,"viability, T/C",[22],8.79%
same,"viability, T/C",[23],9.28%
same,"viability, T/C",[24],12%
same,"viability, T/C",[25],12.1%
same,"viability, T/C",[26],8.63%
same,"viability, T/C",[27],7.14%
same,"viability, T/C",[28],6.54%
same,"viability, T/C",[29],7.28%
same,"viability, T/C",[30],7.84%
